Measured values as given in patent publication US20260193278A1, “NOVEL PHTHALOCYANINE COMPOUNDS AND THE USE THEREOF FOR THE TREATMENT OF DISEASES” (RHODES UNIVERSITY, priority 2022, published 2026).

Columns and labels:
Type in all cases: cell-based
[1] = system: E. coli; assay: Dark toxicity against E. coli, concentration study at 0 min (CFU counting); conditions: in the dark; for Ecoli log CFU/ml (logarithmic reduction value): at the concentration of the μM column; for Ecoli μM (concentration corresponding to the logarithmic reduction): range tested 0-15 μM
Method: (§1) 500 μM stock solutions of the samples were prepared in ultra-pure water (5% DMSO) and used at different concentrations in the biological assays.
(§2) Two bacterial strains were used for the PACT studies; S. aureus as a gram-(+) bacterium and E. coli as a gram-(−) negative bacterium. Stock cultures were grown aerobically in 6 mL of nutrient broth incubated at 37° C. on a rotary shaker (~200 rpm) to obtain bacteria cultures. The incubation was maintained until the optical density of the culture at 600 nm was determined to be between 0.6 and 0.8. The resulting bacterial solution was centrifuged to remove the broth, and bacterial cells were washed three times with PBS. The solution of the bacteria was prepared by diluting with PBS to obtain […] bacteria solutions corresponding to ~10^9 and ~10^8 colony forming units (CFU)/mL, respectively.
(§3) The bacteria/photosensitizer mixtures were incubated in an oven equipped with a shaker for 30 min in the dark at 37° C. before plating. 100 μL of solution was taken from the suspension and was immediately inoculated on agar plates to determine the activity at 0 min without treatment. The number of colonies was then counted on each plate after 18 h of incubation at 37° C. Control treatments were performed in the absence of photosensitizer. All experiments were carried out three times. The data for CFU/mL were converted to the logarithmic form.

[2] = system: S. aureus; assay: Dark toxicity against S. aureus, concentration study at 0 min (CFU counting); conditions: for log reduction (dark toxicity): 0 min; for Staph log CFU/ml (logarithmic reduction value) / Staph μM (concentration corresponding to the logarithmic reduction): in the dark, at 0 min; for Staph log CFU/ml (logarithmic reduction value): at the concentration of the μM column; for Staph μM (concentration corresponding to the logarithmic reduction): range tested 0-10 μM
Method: as §1, §2, §3

[3] = system: S. aureus; assay: Photodynamic inactivation of S. aureus (with irradiation); conditions: after irradiation 20 min at 0.5, 1 and 2.5 μM
Method: as §2
as §3, with “Pc solutions were prepared by dissolving in water containing 5% DMSO and applied over the range of 0-10 μM for S. aureus and 0-15 μM for E. coli. The bacteria/photosensitizer” for “The bacteria/photosensitizer”

[4] = system: MCF-7 (human breast adenocarcinoma) cells; assay: In vitro dark cytotoxicity, MCF-7 cells (anticancer studies); conditions: MCF-7, dark; for Min. Death conc. / Cell death: 24 h; for Cell death: at the Min. Death conc.
Method: MCF-7 (human breast adenocarcinoma) cells were cultured in Dulbecco's modified Eagle's medium-10% fetal bovine serum (DMEM-FBS) and PSA (penicillin/streptomycin/Amphotericin B) at 37° C. in an incubator (5% CO2) in 75 cm^2 vented flasks. The cultures were grown as a monolayer. The growth cells were transferred to well plates by trypsinizing with 0.25% trypsin-EDTA. The Pc stock concentrations were prepared by separately dissolving them in DMSO (1%) and diluting in water and the Pc gradient concentration was prepared by taking known aliquots from the stock and finally made up to marked volume with supplemented media with phenol red.
It was studied from […] both in the dark. 100 μL each of the newly prepared gradient Pcs concentration of 0 μg/mL (control), 5 μg/mL, 10 μg/mL, 20 μg/mL, 40 μg/mL, 60 μg/mL 80 μg/mL, 100 μg/mL and 120 μg/mL were administered on the incubated seeded cells. The 96 well cell culture plates containing the cells and the Pcs were incubated at 37° C. and 5% CO2 in the dark for 24 h. After 24 h treatment, the wells were rinsed with 100 μL DPBS. Cell survival was expressed as percentage of control cells (cells without Pcs). Post treatment cell viability was measured using the cell proliferation […] reagent (WST-1 assay) on a Synergy 2 multi-mode microplate reader (BioTek®) at a wavelength of 450 nm according to the following equation 1.

C[n+]1c(-c2ccc(Oc3ccc4c(c3)C3=Nc5c6ccc(Oc7ccc(-c8[nH]c9cc(Cl)cc(Cl)c9[n+]8C)cc7)cc6c6[n]5[Zn][n]5c(c7ccc(Oc8ccc(-c9[nH]c%10cc(Cl)cc(Cl)c%10[n+]9C)cc8)cc7c5=NC5=NC(=N6)c6cc(Oc7ccc(-c8[nH]c9cc(Cl)cc(Cl)c9[n+]8C)cc7)ccc65)=NC4=N3)cc2)[nH]c2cc(Cl)cc(Cl)c21.[I-].[I-].[I-].[I-] [Compound 193]
Ecoli log CFU/ml (logarithmic reduction value) [1]: 8.79 log CFU/ml
Ecoli μM (concentration corresponding to the logarithmic reduction) [1]: 1 μM
log reduction (dark toxicity) ([2]; at 5 and 10 μM): 9.63
Staph log CFU/ml (logarithmic reduction value) [2]: 9.61 log CFU/ml
Staph μM (concentration corresponding to the logarithmic reduction) [2]: 4 μM
log reduction (photocytotoxicity) [3]: 9.63
optimal concentration to kill the cancer cells [4]: 40 µM
Min. Death conc. [4]: 40 µM
Cell death [4]: 72.7%
cancer cells killed at the optimal concentration [4]: 72.7%

C[n+]1c(-c2ccc(Oc3ccc4c(c3)C3=Nc5c6ccc(Oc7ccc(-c8[nH]c9cc(Br)cc(Cl)c9[n+]8C)cc7)cc6c6[n]5[Cu][n]5c(c7ccc(Oc8ccc(-c9[nH]c%10cc(Br)cc(Cl)c%10[n+]9C)cc8)cc7c5=NC5=NC(=N6)c6cc(Oc7ccc(-c8[nH]c9cc(Br)cc(Cl)c9[n+]8C)cc7)ccc65)=NC4=N3)cc2)[nH]c2cc(Br)cc(Cl)c21.[I-].[I-].[I-].[I-] [Compound 235]
Ecoli log CFU/ml (logarithmic reduction value) [1]: 8.79 log CFU/ml
Ecoli μM (concentration corresponding to the logarithmic reduction) [1]: 12.5 μM
Staph log CFU/ml (logarithmic reduction value) [2]: 9.25 log CFU/ml
Staph μM (concentration corresponding to the logarithmic reduction) [2]: 10 μM
Min. Death conc. [4]: 10 µM
Cell death [4]: 34.8%

Tetrakis [4-(4-(5-bromo-1H-benzo[d]imidazol-2-yl)phenoxy phthalocyaninato] zinc(II) tetraiodide [Compound 218]
Ecoli log CFU/ml (logarithmic reduction value) [1]: 8.78 log CFU/ml
Ecoli μM (concentration corresponding to the logarithmic reduction) [1]: 1 μM
Staph log CFU/ml (logarithmic reduction value) [2]: 9.15 log CFU/ml
Staph μM (concentration corresponding to the logarithmic reduction) [2]: 0.5 μM
Min. Death conc. [4]: 10 µM
Cell death [4]: 56.6%

C[n+]1c(-c2ccc(Oc3ccc4c(c3)C3=Nc5c6ccc(Oc7ccc(-c8[nH]c9cc(Br)cc(Cl)c9[n+]8C)cc7)cc6c6[n]5[Zn][n]5c(c7ccc(Oc8ccc(-c9[nH]c%10cc(Br)cc(Cl)c%10[n+]9C)cc8)cc7c5=NC5=NC(=N6)c6cc(Oc7ccc(-c8[nH]c9cc(Br)cc(Cl)c9[n+]8C)cc7)ccc65)=NC4=N3)cc2)[nH]c2cc(Br)cc(Cl)c21.[I-].[I-].[I-].[I-] [Compound 233]
Ecoli log CFU/ml (logarithmic reduction value) [1]: 8.79 log CFU/ml
Ecoli μM (concentration corresponding to the logarithmic reduction) [1]: 1 μM
Staph log CFU/ml (logarithmic reduction value) [2]: 9.25 log CFU/ml
Staph μM (concentration corresponding to the logarithmic reduction) [2]: 4 μM
Min. Death conc. [4]: 60 µM
Cell death [4]: 91.7%

C[n+]1c(-c2ccc(Oc3ccc4c(c3)C3=Nc5c6ccc(Oc7ccc(-c8[nH]c9cc(F)cc(Br)c9[n+]8C)cc7)cc6c6[n]5[Co][n]5c(c7ccc(Oc8ccc(-c9[nH]c%10cc(F)cc(Br)c%10[n+]9C)cc8)cc7c5=NC5=NC(=N6)c6cc(Oc7ccc(-c8[nH]c9cc(F)cc(Br)c9[n+]8C)cc7)ccc65)=NC4=N3)cc2)[nH]c2cc(F)cc(Br)c21.[I-].[I-].[I-].[I-] [Compound 230]
Ecoli log CFU/ml (logarithmic reduction value) [1]: 8.79 log CFU/ml
Ecoli μM (concentration corresponding to the logarithmic reduction) [1]: 1 μM
Staph log CFU/ml (logarithmic reduction value) [2]: 9.25 log CFU/ml
Staph μM (concentration corresponding to the logarithmic reduction) [2]: 0.5 μM
Min. Death conc. [4]: 5 µM
Cell death [4]: 54.9%

C[n+]1c(-c2ccc(Oc3ccc4c(c3)C3=Nc5c6ccc(Oc7ccc(-c8[nH]c9ccc(Cl)cc9[n+]8C)cc7)cc6c6[n]5[Co][n]5c(c7ccc(Oc8ccc(-c9[nH]c%10ccc(Cl)cc%10[n+]9C)cc8)cc7c5=NC5=NC(=N6)c6cc(Oc7ccc(-c8[nH]c9ccc(Cl)cc9[n+]8C)cc7)ccc65)=NC4=N3)cc2)[nH]c2ccc(Cl)cc21.[I-].[I-].[I-].[I-] [Compound 243]
Ecoli log CFU/ml (logarithmic reduction value) [1]: 8.79 log CFU/ml
Ecoli μM (concentration corresponding to the logarithmic reduction) [1]: 2.5 μM
Staph log CFU/ml (logarithmic reduction value) [2]: 9.24 log CFU/ml
Staph μM (concentration corresponding to the logarithmic reduction) [2]: 4 μM
Min. Death conc. [4]: 120 µM
Cell death [4]: 62.4%

C[n+]1c(-c2ccc(Oc3ccc4c(c3)C3=Nc5c6ccc(Oc7ccc(-c8[nH]c9cc(Cl)cc(Cl)c9[n+]8C)cc7)cc6c6[n]5[Cu][n]5c(c7ccc(Oc8ccc(-c9[nH]c%10cc(Cl)cc(Cl)c%10[n+]9C)cc8)cc7c5=NC5=NC(=N6)c6cc(Oc7ccc(-c8[nH]c9cc(Cl)cc(Cl)c9[n+]8C)cc7)ccc65)=NC4=N3)cc2)[nH]c2cc(Cl)cc(Cl)c21.[I-].[I-].[I-].[I-] [Compound 201]
Ecoli log CFU/ml (logarithmic reduction value) [1]: 8.79 log CFU/ml
Ecoli μM (concentration corresponding to the logarithmic reduction) [1]: 12.5 μM
log reduction (dark toxicity) ([2]; at 10 μM): 9.63
Staph log CFU/ml (logarithmic reduction value) [2]: 9.61 log CFU/ml
Staph μM (concentration corresponding to the logarithmic reduction) [2]: 8 μM
optimal concentration to kill the cancer cells [4]: 120 µM
Min. Death conc. [4]: 120 µM
Cell death [4]: 45.4%
cancer cells killed at the optimal concentration [4]: 45.4%
